In US5888971A, “Macrocyclic peptides useful in the treatment of thrombin related disorders” (Ortho Pharmaceutical Corporation, Inc., priority 1996, dated 1999):

Legend:
human alpha-thrombin [1] = target: T1, human alpha-thrombin (Homo sapiens, UniProt P00734); experiment: Thrombin-catalyzed hydrolysis of chromogenic substrate, Michaelis-Menten Ki; assay type: biochemical; conditions: 1 nM thrombin, 5-100 μM Spectozyme TH, 37° C., pH 7.4, Michaelis-Menten kinetics; for Ki: read-out: Thr Ki
T1 construct: commercial human alpha-thrombin (American Diagnostica); purchased American Diagnostica
Description: (§1) The compounds of the invention were tested for their ability to inhibit thrombin mediated hydrolysis.
Changes in absorbance at 405 nm were monitored (Softmax, Molecular Devices), upon addition of enzyme, both with and without inhibitor present at 37° C. over 30 minutes. […] Michaelis-Menton kinetics were applied to the initial reaction slopes using the program K Cat (Bio Metallics Inc.).

Bovine type 1 trypsin = target: T2, Bovine type 1 trypsin (Bos taurus, UniProt P00760); experiment: Trypsin-catalyzed hydrolysis of chromogenic substrate, Ki; assay type: biochemical; conditions: 3.2 U/ml trypsin, 0.1-0.3 mM Spectrozyme TRY; read-out: Trp Ki
T2 construct: purchased Sigma
T2 sequence (P00760 24-246): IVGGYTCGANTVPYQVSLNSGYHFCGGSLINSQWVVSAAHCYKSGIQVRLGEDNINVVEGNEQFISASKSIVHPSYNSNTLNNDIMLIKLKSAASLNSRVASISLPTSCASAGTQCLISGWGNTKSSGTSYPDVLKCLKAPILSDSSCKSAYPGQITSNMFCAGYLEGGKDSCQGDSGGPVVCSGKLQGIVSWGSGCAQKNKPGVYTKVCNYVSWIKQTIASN
Description: as §1
Trypsin-catalyzed hydrolysis rates were measured using the same method as the thrombin procedure.

human alpha-thrombin [2] = target: T1, human alpha-thrombin; experiment: Slow, tight-binding kinetics with thrombin (Ki-slow); assay type: biochemical; conditions: 0.1 nM thrombin, 50 μM Spectozyme TH, 25° C., 4 h; read-out: Thr Ki -slow
Description: Ki-slow was determined by measuring enzyme-catalyzed hydrolysis rates. […] The compound numbers in the table correspond to the examples described hereinafter.

thrombin = thrombin (Homo sapiens, UniProt P00734); conditions: background section; cited from earlier work

| Compound | Ki (human alpha-thrombin [1]) [nM] | Ki (Bovine type 1 trypsin) [nM] | Ki (human alpha-thrombin [2]) [nM] | Ki (thrombin) [nM] | selectivity for thrombin over trypsin (thrombin) | Thr Ki (human alpha-thrombin [1]) |
| --- | --- | --- | --- | --- | --- | --- |
| 3S,6S,12R-N-[3-(12-BENZYL-2,5,11,14,20-PENTAOXO-23-THIA-4,10,13,19,24-PENTAAZATRICYCLO[19.2.1.3]-6,10-TETRACOSA-1(2H), 21-DIEN-3-YL)PROPYL]GUANIDINE [Compound 23] | 1000 ± 400 | 66 ± 26 |  |  |  |  |
| 5R,14R,18S,20aS-N-[3-(5-BENZYL-14-METHYI-4,7,13,16,17,20-HEXAOXOEICOSAHYDRO-3a,6,12,15,19-PENTAAZACYCLOPENTA-CYCLONONADECEN-18-YL)PROPYL]GUANIDINE TRIFLUOROACETIC ACID [Compound 21] | 92 ± 46 | 22 ± 14 | 4.71 ± 1.51 |  |  |  |
| 5R,15R,19S,21 AS-N-[3-(15-BENZHYDRYL-5-BENZYL-4,7,14,17,18,21-HEXAOXODOCOSAHYDRO-3a,6,13,16,20-PENTMZACYCLOPENTACYCLOEICOSEN-19-YL)PPROPYL]GUANIDINE TRIFLUOROACETIC ACID [Compound 19] | 5.3 ± 2.6 | 2.5 ± 0.75 |  |  |  |  |
| 5R, 2S, 18S-N-[3-(5-NAPTHALEN-2-YLMETHYL-4, 17, 16, 17, 20-PENTAOXOEICOSAHYDRO-3a, 6, 15, 19-TETRAAZACYCLOPENTACYCLONONADECEN-18-YL)PROPYL] GUANIDINE TRIFLUOROACETATE HYDRATE [Compound 6] | 21 ± 5 | 6.8 ± 5 |  |  |  |  |
| 6R, 19S, 22S-N-[3-(6-BENZYL-5, 8, 17, 18, 21-PENTAOXODOCOSAHYDRO-4a, 7, 16, 20-TETRAAZABENCBZOCYCLONONADECEN-19-YL) PROPYL] GUANIDINE TRIFLUOROACETIC ACID HYDRATE [Compound 5] | 90 ± 8.6 | 85 ± 29 |  |  |  |  |
| N=C(N)NCCCC1NC(=O)CCCCCNC(=O)C(Cc2ccccc2)NC(=O)C1=O (centres unmarked) [Compound 18, N-[3-(3-BENZYL-2,5,6,9-TETRAOXO-1,4,8-TRIAZACYCLOTETRADEC-7-YL)PROPYL]GUANIDINE TRIFLUOROACETIC ACID] | 3800 ± 200 | 310 ± 10 |  |  |  |  |
| N=C(N)NCCC[C@@H]1NC(=O)[C@@H]2CCCN2C(=O)[C@@H](NC=O)CNC(=O)/C=C/[C@H](Cc2ccc(O)cc2)NC(=O)[C@@H](Cc2ccccc2)NC(=O)C1=O [CtA, Cyclotheonamide A, reference compound] | 170 ± 80 | 23000 | 4 ± 1.9 | 1 to 2 | does not favor thrombin |  |
| CN[C@H](Cc1ccccc1)C(=O)N1CCC[C@H]1C(=O)N[C@H](C=O)CCCN=C(N)N [N-Me-PPAC, N-Me PPACK aldehyde, reference compound] | 10 |  |  |  |  |  |
| [20aR-(20aR, 5R, 18S)]-N-[3-(5-PHENYLETHYL-17-HYDROXY-4, 7, 16, 20-TETRAOXOEICOSAHYDRO-3a, 6, 15, 19-TETRA-AZACYCLONONADECANE-18-YL) PROPYIL] GUANIDINE [Compound 22] |  |  |  |  |  | no activity at 50 μM |
